Patent US5646308A, “Benzopyran derivatives” (Chugai Seiyaku Kabushiki Kaisha, priority 1992, dated 1997)

Key:
[1] = tested on: histamine-induced increase in respiratory tract inner pressure; assay: Study on Antiasthmatic Activity: inhibition of histamine-induced increase in respiratory tract inner pressure; format: in vivo, male hartley guinea pig; conditions: Cavia porcellus, 10 min; anesthetized guinea pig, intraduodenal, 0.3% CMC suspension; histamine 5 to 10 μg/kg i.v. every 10 minutes; read-out: ED50 (dose for 50% inhibition of the histamine-induced increase in respiratory tract inner pressure)
Method: Study on Antiasthmatic Activity
A mid-line incision was made in the neck of a male hartley guinea pig (600 to 800 g, CRJ) under anesthesia with […] (40 mg/kg, i.p.). The trachea, the […], and the left carotid artery were exposed, and a cannula was inserted into each of them. The inner pressure of the respiratory tract was measured while applying artificial respiration through the tracheal cannula. The blood pressure was measured through the arterial cannula, and the heart rate was determined from the pulse. Pentobarbital for anesthesia maintenance was continuously administered through the venous cannula. A mid-line incision was made on the abdomen to expose the duodenum, and a canuula for intraduodenal administration was inserted thereinto. After the postoperative convalescene of 30 to 60 minutes, histamine (5 to 10 μg/kg) was intravenously administered every 10 minutes. After it was confirmed that a respiratory tract inner pressure rise reaction was stably obtained, a test compound in the form of a 0.3% CMC suspension was intraduodenally administered. The histamine dose was so selected that the respiratory tract inner pressure might rise to 20 to 40 cmH2 O after every intravenous administration. After administration of the test compound, intrvenous administration of histamine at 10 minutes intervals was continued. The histamine-induced increase in respiratory tract inner pressure after the administration of the test compound was compared with that before the administration.

[2] = tested on: Guinea Pig Tracheal Muscle; assay: Test with Guinea Pig Tracheal Muscle: relaxing activity on spontaneous tension; design: species or system male Hartley guinea pig; conditions: Cavia porcellus, relaxation by 1 mM aminophylline = 100%, 37° C., tension 1 g, read-out: IC50 (concentration exhibiting 50% relaxing activity), Guinea Pig Tracheal Muscle
Method: Test with Guinea Pig Tracheal Muscle
The trachea was excised from a male Hartley guinea pig (450 to 550 g) to make chain preparations. The preparation was suspended In a bath containing the same Krebs-henseleit solution as used in Test Example 1 (37° C.) through which a mixed gas of 95% O2 and 5% CO2 was bubbled. Isometric contractions of the preparation were recorded under a tension of 1 g.
The same test compounds as used in Test Example 1 were used.

Rat Aorta = assay: Test with Excised Aorta of Rat: relaxation of lasting KCl-induced contraction; design: species or system male Sprague Dawley rat; conditions: rat thoracic aorta rings, 30 mM KCl contraction, Krebs-Henseleit, 37° C., tension 2 g; read-out: IC50 (50% inhibitory concentration, relaxation of lasting contraction following KCl addition), Rat Aorta
Method: Test with Excised Aorta of Rat
The thoracic aorta was excised from a male Sprague Dawley rat (450 to 600 g) and cut into 2 mm wide ring preparations. Each preparation was suspended in 10 ml of an organ bath containing a Krebs-Henseleit solution (NaCl: 119; KCl: 4.8; CaCl2 ·2H2 O: 2.53; KH2 PO4 : 1.2; MgSO4 ·7H2 O: 1.2; NaHCO3 : 24.8; glucose: 10 (mM); 37° C.) under a tension of 2 g, and a mixed gas of 95% O2 and 5% CO2 was bubbled therethrough. Isometric contractions of the preparation were recorded by means of an FD pick-up. […] The activity of a test compound to relax a lasting contraction following the KCl addition was evaluated by obtaining a 50% inhibitory concentration (IC50).
The compounds of the present invention obtained in the foregoing Examples and, for comparison, Cromakalim were used as test compounds.

Row | Structure (SMILES) | ED50 [1] [mg/kg] | IC50 [2] [nM] | IC50 (Rat Aorta) [nM]
1 | CC1(C)Oc2ccc(C#N)cc2[C@@H](N2CCCC2=O)[C@@H]1O (relative stereo) [Cromakalim, reference compound] | 1 to 3 | 790 | 180
2 | CNC(=O)C1=CC(C)(COC)Oc2ccc([N+](=O)[O-])cc21 (stereo not shown) [1(2), 2-methoxymethyl-N,2-dimethyl-6-nitro-2H-1-benzopyran-4-carboxamide] | 0.1 | 86 | 59
3 | CNC(=S)C1=CC(C)(COC)Oc2ccc([N+](=O)[O-])cc21 (stereo not shown) [Example 2, 2-Methoxymethyl-N,2-dimethyl-6-nitro-2H-1-benzopyran-4-carbothioamide] | – | 29 | 17
4 | CN=C(NC#N)C1=CC(C)(COC)Oc2ccc([N+](=O)[O-])cc21 (stereo not shown) [Example 3, N-Cyano-2-methoxymethyl-N',2-dimethyl-6-nitro-2H-1-benzopyran-4-amidine] | – | 260 | 97
5 | CNC(=O)C1=CC(CF)(CF)Oc2ccc([N+](=O)[O-])cc21 [Example 7, 2,2-Bis(fluoromethyl)-N-methyl-6-nitro-2H-1-benzopyran-4-carboxamide] | 0.01 | 10 | 6
6 | CNC(=S)C1=CC(CF)(CF)Oc2ccc([N+](=O)[O-])cc21 [Example 8, 2,2-Bis(fluoromethyl)-N-methyl-6-nitro-2H-1-benzopyran-4-carbothioamide] | – | 3 | 0.28
7 | CN=C(NC#N)C1=CC(CF)(CF)Oc2ccc([N+](=O)[O-])cc21 [Example 9, N-Cyano-2,2-bis(fluoromethyl)-N'-methyl-6-nitro-2H-1-benzopyran-4-amidine] | – | 41 | 14
8 | N#CCCNC(=O)C1=CC(CF)(CF)Oc2ccc([N+](=O)[O-])cc21 [Example 10, N-(2-cyanoethyl)-2,2-bis(fluoromethyl)-6-nitro-2H-1-benzopyran-4-carboxamide] | – | 5 | 2.1
